Data set [1] concerns bacteria. Put plainly: Antibacterial / antimicrobial effect of comparison peptides. Format: cell-based.
The nature of data set [2]: Storage of lyophilized peptide. Format: physicochemical. The settings on record: room temperature.
The subject of data set [3] is S. carnosus. Format: cell-based, Staphylococcus carnosus. The method, then: To determine the minimal inhibitory concentration of casocidin-I under the influence of the medium strength or in the presence of bivalent cations, a dilution assay was performed in 96-well cell culture clusters. After diluting the peptide in 50 μl medium (tryptic soy broth, Sigma, Germany) with adjusted pH 7.2, ion concentrations or medium strength on one plate, the same amount of medium with appr. 2-4*10^3 bacteria in 50 μl medium were added to the diluted samples. The incubations were done overnight at 37° C. The minimal inhibitory concentration was manually read using a microscope.

Data set [4] deals with E. coli. In words: Preincubation experiment (determination of CFU). Format: cell-based. The note with it: incubated at 37° C. for 120 min, interpolated from FIG. 3. The method, then: (§1) Exponentially grown bacteria with a density corresponding to an A600 of 0.4 to 0.6, were initially diluted 1:10^5 in 10 mM phosphate buffer (Na—P, pH 7.2) or phosphate buffered saline (PBS, pH 7.4) and incubated at 37° C. for 120 min in Na—P or PBS supplemented with different concentrations of peptides. After this period the reaction mixtures were diluted 1:10 and 1:100 in the same buffer and plated on LB-Agar to determine the colony forming units (CFU). The plating were done in triplets. The colonies were counted with a colony counter (Darkfield, Quebec, Canada).
(§2) An example for the depletion of viable bacteria gives FIG. 2 showing that a time dependent killing of the bacteria during incubation occurs. The interpolation of the date gives the following order of sensitivity of the used strains B. subtilis>S. carnosus=S. epidermidis>Rhodotorula >>E. coli>Enterococcus faecium ATCC 35667. The concentration necessary to reduce the colony forming units (CFU) to 50% of the initial CFU ranges from 180 μg/ml (E. faecium) over 20 μg/ml (E. coli, S. carnosus, R. rubra) to 1 μg/ml for B. subtilis indicating a potent inhibitory effect of the used peptide.

In data set [5] the test system is B. subtilis. In words: Preincubation experiment (determination of CFU). The note with it: incubated at 37° C. for 120 min, interpolated from FIG. 3. Format: cell-based. The method, then:
as §1, §2

The subject of data set [6] is Enterococcus faecium ATCC 35667. In words: Preincubation experiment (determination of CFU). Format: cell-based. The note with it: E. faecium; incubated at 37° C. for 120 min; interpolated from FIG. 3. The method, then: as §1, §2
For data set [7], the system named is R. rubra. In words: Preincubation experiment (determination of CFU). Format: cell-based, Rhodotorula rubra. The note with it: incubated at 37° C. for 120 min, interpolated from FIG. 3. The method, then:
as §1, §2

Data set [8] deals with E. coli transformed with the plasmid pUC18. Put plainly: Membrane permeabilization, release of beta-galactosidase and beta-lactamase. The note with it: 37° C. for 30 min, FIG. 5. Format: cell-based. The method, then:
The beta-galactosidase indicated the degree of the permeabilization of the inner membrane (IM) of E. coli. The permeabilization of the outer membrane was monitored by determination of released beta-Lactamase (plasmid coded) mainly present in the periplasmatic space.
To measure the relative release of beta-galactosidase a suspension of E. coli grown overnight in LB medium was washed once in phosphate buffer (10 mM, pH 7.0). Afterwards the bacteria were resuspended to a final density of app. 0.5 A600. Peptide fractions were lyophilized in 1.5 ml tubes in a speed vac concentrator and solved in 40 μl phosphate buffer. To the peptide solution a volume of 200 μl bacterial suspension was added and the incubation was performed at 37° C. for 30 min. As a control, to determine the maximum of the enzyme release, bacteria were disrupted by ultrasonic treatment (about 100 joules in 10 sec). […] The absorbance of the samples at 405 nm was measured and the increase of each absorbance was normalized to the sonified sample assuming enzymatic release of 100%.
To detect the release of beta-lactamase the supernatants of E. coli were prepared as described for the beta-galactosi-dase. […] The samples were incubated for 45 min at 37° C. in the dark and the absorbance was measured at a wavelength of 700 nm and the normalization was done with the results gained with sonified samples.

Data set [9] relates to S. carnosus. In words: Preincubation experiment (determination of CFU). Format: cell-based, Staphylococcus carnosus. The settings on record: incubated at 37° C. for 120 min, interpolated from FIG. 3. The method, then: as §1, §2

The record followed here is patent US6579849B2, “Antibiotic peptides from bovine milk” (HaemoPep Pharma GmbH, priority 1998, dated 2003).

Like-named read-outs stand apart in the source and are kept apart here.

QRYQ: the “antibacterial / antimicrobial effect” value in data set [1] is on record as “not sufficient to gain antimicrobial properties”.

Consider `CC[C@H](C)[C@H](NC(=O)[C@H](CCCCN)NC(=O)[C@H](CCCCN)NC(=O)[C@H](CC(C)C)NC(=O)[C@H](Cc1ccccc1)NC(=O)[C@H](CC(N)=O)NC(=O)[C@H](CC(C)C)NC(=O)[C@H](CCCNC(=N)N)NC(=O)[C@H](CC(N)=O)NC(=O)[C@H](CCCCN)NC(=O)[C@H](CCC(=O)O)NC(=O)[C@H](CCC(=O)O)NC(=O)[C@H](CCC(=O)O)NC(=O)[C@@H](NC(=O)[C@H](CC(C)C)NC(=O)[C@H](CCCCN)NC(=O)[C@@H](NC(=O)[C@@H](N)CCCCN)[C@@H](C)O)[C@@H](C)O)C(=O)N[C@@H](CO)C(=O)N[C@@H](CCC(N)=O)C(=O)N[C@@H](CCCNC(=N)N)C(=O)N[C@@H](Cc1ccc(O)cc1)C(=O)N[C@@H](CCC(N)=O)C(=O)N[C@@H](CCCCN)C(=O)N[C@@H](Cc1ccccc1)C(=O)N[C@@H](C)C(=O)N[C@@H](CC(C)C)C(=O)N1CCC[C@H]1C(=O)N[C@@H](CCC(N)=O)C(=O)N[C@@H](Cc1ccc(O)cc1)C(=O)N[C@@H](CC(C)C)C(=O)N[C@@H](CCCCN)C(=O)N[C@H](C(=O)N[C@H](C(=O)N[C@@H](Cc1ccc(O)cc1)C(=O)N[C@@H](CCC(N)=O)C(=O)N[C@@H](Cc1c[nH]cn1)C(=O)N[C@@H](CCC(N)=O)C(=O)N[C@@H](CCCCN)C(=O)O)C(C)C)[C@@H](C)O` [casocidin-I], for which, in data set [2], the “potency when lyophilized, storage” value was “keeps its potency when lyophilized”. For the same compound, the MIC entry in data set [3] (bivalent cation 2.5 mM Ca) is “no”; in data set [3] (bivalent cation 2.5 mM Mn), “no”; in data set [3] (medium strength 1 (tryptic soy broth, pH 7.2)), “no”. In addition, the “concentration necessary to reduce the colony forming units (CFU) to 50% of the initial CFU” value in [4] amounted to 20 µg/mL; in data set [5] it was 1 µg/mL; in data set [6], 180 µg/mL; in data set [7], 20 µg/mL; in data set [9], 20 µg/mL. In addition, the “mechanism of action: release of intracellular enzymes beta-galactosidase and beta-lactamase” value in [8] is reported as “membrane permeabilizing effect”.
